According to patent US20080318847A1, “Use of Antagonist of Oxytocin and/or Vasopressin in Assisted Reproduction” (Ferring International Center SA, priority 2005, published 2008):
Entries after “also recorded” stand apart in the source; their conditions may differ. Bridge positions count the residues as written; N and C are the ends. Square brackets hold non-standard residues; d marks the D form. Peptide text beside a SMILES is read from it. Orn = NCCC[C@H](N)C(=O)O; Mpa = O=C(O)CCS

Columns and labels:
[1] = biological target: vasopressin V1a receptors (Homo sapiens, UniProt P37288); conditions: V1a versus oxytocin receptors; cited from earlier work
Sequence of vasopressin V1a receptors (P37288 whole entry): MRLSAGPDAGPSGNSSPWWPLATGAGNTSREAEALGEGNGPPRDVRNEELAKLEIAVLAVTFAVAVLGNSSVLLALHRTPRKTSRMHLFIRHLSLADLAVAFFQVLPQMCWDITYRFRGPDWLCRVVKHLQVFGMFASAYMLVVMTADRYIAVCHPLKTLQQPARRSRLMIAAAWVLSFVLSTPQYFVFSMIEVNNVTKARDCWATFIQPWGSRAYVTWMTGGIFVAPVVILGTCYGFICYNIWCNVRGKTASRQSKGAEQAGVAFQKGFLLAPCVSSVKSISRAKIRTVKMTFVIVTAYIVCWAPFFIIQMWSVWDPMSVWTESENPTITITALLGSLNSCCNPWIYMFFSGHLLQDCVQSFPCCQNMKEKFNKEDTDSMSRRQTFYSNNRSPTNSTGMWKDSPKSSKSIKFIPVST

[2] = test system: uterine contractile activity; conditions: non pregnant humans, vasopressin administrations VAS-1 to VAS-3; Bossmar et al.; cited from earlier work
[3] = after the initiation of the intravenous infusion; cited from earlier work
human sperm = experiment: Human Sperm Motility Bioassay (embryotoxicity); type: cell-based
Protocol: In order to verify the embryotoxicity of atosiban a study on influence of atosiban on parameters of human sperm motility was performed (Human Sperm Motility Bioassay). The technique used in the study is a standard in the quality control and evaluation of embryotoxicity in IVF laboratories.
The study was performed on samples of fresh human sperm taken from 15 healthy donors with perfect seminologic parameters. After selecting the alive and motile population (swim-up ascending migration method), sperm samples were transferred to the sterile Eppendorf tubes containing Human Sperm Preparation Medium alone or with atosiban in concentrations of 300 nM, 1000 nM, 3000 nM, last concentrations being 10-fold to maximal concentrations achieved in humans in the course of treatment of preterm labor. Sperm motility assessment was performed with computer assisted sperm analyzer Hobson Sperm Tracker in the 1st, 8th and 24th hour of exposition to atosiban.
Following parameters were analyzed:
a) percentage of actively motile sperm cells (Active %); b) percentage of motile sperm cells (Motility %); c) percentage of hyperactively motile sperm cells (Hyper %), d) VSL—straight line velocity, e) VCL—total velocity, f) ALH—amplitude of lateral head displacements. Results are presented at FIG. 2 and FIG. 3. In the statistic analysis, analysis of variance (ANOVA) was applied.

[4] = clinical use in preterm labor; cited from earlier work
[5] = test system: uterine contractile activity; experiment: Transvaginal sonography of uterine contractile activity before and during atosiban infusion at embryo transfer (IVF-ET patient); type: in vivo, human
Protocol: FIG. 1 presents a graph on uterine contractile activity assessed by transvaginal sonography in patient which case is described in example 1. Uterine contractions on graph B and C are marked with light color for better visualization. In the method of digital image analysis, due to the requirement of a high picture quality, a period of 4 minutes out of total 5 minutes recorded was selected for analysis. • A) Schematic presentation of a principle of non invasive assessment of uterine contractility (done similarly to Fanchin et al. [Hum. Reprod. 1998; 13(7):1968-74]) Description: U—uterus, En—endometrium (the inner layer of the uterus)—during the uterine contractions, changes in texture and contour of endometrium are observed, My—myometrium (the middle layer of uterus, built of smooth muscle tissue), T—testing segment, where movements of contour of endometrium representing the uterine contractile activity are assessed • B) Graph presenting uterine contractile activity before the application of oxytocin antagonist atosiban. Contractile hyperactivity is seen. Legend: ↑—uterine contraction, 1 min—segment representing 1 min of digital recording, T—testing segment, where movements of contour of endometrium reflecting the uterine contractile activity are assessed; C) Graph presenting uterine contractile activity in the time of maximal effect of oxytocin antagonist atosiban. […] Legend: ↑—uterine contraction, 1 min—segment representing 1 min of digital recording, T—testing segment, where movements of contour of endometrium reflecting the uterine contractile activity are assessed
In the 8th cycle of the treatment, a decision on application of a medicament containing atosiban (antagonist of oxytocin and vasopressin) was drawn, aiming to improve the uterine receptivity. The medicament was given in intravenous infusion, which started 60 minutes before the transfer and was continued throughout 2 hours after the transfer. […]

[6] = test system: uterine receptivity at the embryo transfer; experiment: Clinical application of atosiban at embryo transfer (IVF-ET): outcome and tolerability; type: in vivo, human
Source text: Clinical application of medicament containing atosiban—an antagonist of oxytocin and vasopressin for increasing the uterine receptivity at the embryo transfer in the course of assisted reproduction procedure of IVF-ET (in vitro fertilization-embryo transfer).
In the 8th cycle of the treatment, a decision on application of a medicament containing atosiban (antagonist of oxytocin and vasopressin) was drawn, aiming to improve the uterine receptivity. The medicament was given in intravenous infusion, which started 60 minutes before the transfer and was continued throughout 2 hours after the transfer. 10 minutes before the start of administration (70 minutes before the transfer) transvaginal sonography with 5-minute digital registration of uterine contractions was performed. […] Immediately after, a continuous infusion of 18 mg/hour of atosiban was connected using the infusion pump and was continued throughout the next 60 minutes. 45 minutes after the initiation of the infusion, transvaginal sonography with digital image registration was repeated. Between 55th and 60th minute of infusion, a sonography-guided transfer of 2 embryos was performed. After the transfer, the dosage of atosiban was changed to 6 mg/hour. Infusion was finished 2 hours after the transfer, total dose administered was 37.5 mg.
The mode of application of atosiban described above provided the maximal effect at the time of embryo transfer (it was proven that stable concentrations of atosiban are reached about an hour after the initiation of the infusion). Patient stayed in horizontal position until an hour after termination of the infusion and limited their activities on that day. At the control visit done 2 weeks after the embryo transfer, a pregnancy test was done with positive result.

[7] = test system: human pregnant myometrium; conditions: cited from earlier work
[8] = in vivo; cited from earlier work
[9] = atosiban 300 nM, 1000 nM, 3000 nM, 1st, 8th and 24th hour, ANOVA

Molecule: COc1ccc(S(=O)(=O)N2c3ccc(Cl)cc3[C@](O)(c3ccccc3Cl)[C@@H]2C(=O)N2CCC[C@H]2C(N)=O)cc1OC [relcovaptan]
- receptor affinity profile [1]: greater affinity towards vasopressin V1a receptors as compared to oxytocin receptors
- uterine contractility (area under curve of intrauterine pressure) relative to placebo [2]: decreasing the uterine contractility

Molecule: CCOc1ccc(C[C@H]2NC(=O)CCSSC[C@@H](C(=O)N3CCC[C@H]3C(=O)N[C@@H](CCCN)C(=O)NCC(N)=O)NC(=O)[C@H](CC(N)=O)NC(=O)[C@H]([C@@H](C)O)NC(=O)[C@H]([C@@H](C)CC)NC2=O)cc1 [atosiban] ([Mpa][dY](Et)ITNCP[Orn]G-NH2; disulfide 1-6)
- time until stable concentrations are reached [3]: about an hour
- percentages of actively motile, motile and hyperactively motile sperm (Active %, Motility %, Hyper %) versus control (human sperm; [9]): No significant differences
- sperm movement parameters (VCL, VSL, ALH) versus control (human sperm; [9]): no significant differences
- parameters of human sperm motility (Active %, Motility %, Hyper %, VSL, VCL, ALH) versus control samples (human sperm; atosiban 300 nM, 1000 nM, 3000 nM, in vitro, ANOVA): does not inhibit; also recorded: No significant differences
- embryotoxicity (concluded from sperm motility bioassay) (human sperm; atosiban up to 3000 nM): lacks embryotoxic potential; also recorded: lack of embryotoxicity
- side effects [4]: minimal side effects
- uterine contractions, method II (digital analysis of displacements of endometrial contour) ([5]; after the administration of atosiban i.v. (stable blood levels), 11 contractions/4 min before administration): 7 contractions/4 min
- uterine contractions, method I (inspection and manual registration of contractions on an accelerated film sequence) ([5]; after the administration of atosiban i.v. (stable blood levels, 45 minutes after initiation of infusion), 15 contractions/5 min before administration): 8 contractions/5 min
- uterine contractile activity (change versus before atosiban) ([5]; time of maximal effect / stable blood levels of atosiban): notably decreased; also recorded: significant reduction
- pregnancy test ([6]; 2 weeks after the embryo transfer, atosiban 6.75 mg bolus, 18 mg/hour then 6 mg/hour i.v.): positive
- transvaginal sonography finding ([6]; 4 weeks after the transfer): intrauterine, normal twin pregnancy
- adverse reactions ([6]; bolus dose of 6.75 mg intravenously, 60 minutes before the transfer): no adverse reactions

Molecule: barusiban
- inhibition of contractile activity ([7]; in the range of oxytocin concentrations that occur in humans): total inhibition
- potency as inhibitor of uterine contractions compared to atosiban ([7]; in vitro): more potent
- myometrium contractile activity after administration ([7]; oxytocin stimulated, in vitro, Pierzynski et al.): significantly reduced
- estimated half time of a single dose [8]: 7 h
